The values that follow come from article PMC5908784, “Extracellular loops 2 and 3 of the calcitonin receptor selectively modify agonist binding and efficacy” (Biochemical Pharmacology, 2018).

Substitutions are numbered along the chain they refer to. Read-outs that look alike come from different tables or passages of the source. Where a SMILES comes first, the peptide text is derived from it. Bridges are numbered along the chain shown (N, C = ends).

Assay in all cases: ERK1/2 phosphorylation
Assay type in all cases: cell-based

The target of one assay is T1, hCTR L368A (Homo sapiens, UniProt P30988, L368A).
T1 construct: c-Myc (N); expressed in transfected cells
T1 sequence (P30988 25-474 L368A): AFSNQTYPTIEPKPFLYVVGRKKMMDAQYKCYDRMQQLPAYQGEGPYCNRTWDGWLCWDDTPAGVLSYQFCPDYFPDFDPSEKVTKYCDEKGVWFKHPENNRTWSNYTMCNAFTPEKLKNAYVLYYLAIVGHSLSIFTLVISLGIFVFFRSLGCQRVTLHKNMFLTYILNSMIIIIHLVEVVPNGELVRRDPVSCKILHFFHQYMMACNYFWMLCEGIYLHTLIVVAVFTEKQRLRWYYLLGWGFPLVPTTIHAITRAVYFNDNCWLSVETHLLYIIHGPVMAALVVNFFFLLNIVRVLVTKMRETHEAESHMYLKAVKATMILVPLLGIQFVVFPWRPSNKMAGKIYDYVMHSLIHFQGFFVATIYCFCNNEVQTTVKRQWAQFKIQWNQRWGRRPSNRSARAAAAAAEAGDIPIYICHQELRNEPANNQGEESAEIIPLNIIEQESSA
Particulars: CV1-FlpIn cells, mean ± S.E.M.; for Emax: pERK maximal response; for EC50: pERK, three-parameter logistic fit. The method, boiled down: (§1)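 Read-out is phospho-ERK1/2, reported relative to the 10% FBS maximum taken at 6 min. Wells held 2.5 × 10^4 cells seeded the night before. Potency and efficacy reflect functional affinity, efficacy and stimulus-response coupling combined.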

A further assay concerns the target T2, hCTR K366A (Homo sapiens, UniProt P30988, K366A).
T2 construct: c-Myc (N); expressed in transfected cells
T2 sequence (P30988 25-474 K366A): T1 sequence (P30988 25-474 L368A) with K342A, A344L
Particulars: CV1-FlpIn cells, mean ± S.E.M.; for Emax: pERK maximal response; for EC50: pERK, three-parameter logistic fit. The method, boiled down: as §1

The next assay addresses T3, hCTR V357A (Homo sapiens, UniProt P30988, V357A).
T3 construct: c-Myc (N); expressed in transfected cells
T3 sequence (P30988 25-474 V357A): T1 sequence (P30988 25-474 L368A) with V333A, A344L
Particulars: CV1-FlpIn cells, mean ± S.E.M.; for Emax: pERK maximal response. The method, boiled down:
as §1

Another assay addresses T4, hCTR M376A (Homo sapiens, UniProt P30988, M376A).
T4 construct: c-Myc (N); expressed in transfected cells
T4 sequence (P30988 25-474 M376A): T1 sequence (P30988 25-474 L368A) with A344L, M352A
The note with it: CV1-FlpIn cells, mean ± S.E.M.; for Emax: pERK maximal response; for EC50: pERK, three-parameter logistic fit. The method, boiled down:
as §1

The target of the next assay is T5, hCTR W361A (Homo sapiens, UniProt P30988, W361A).
T5 construct: expressed in transfected cells
T5 sequence (P30988 25-474 W361A): T1 sequence (P30988 25-474 L368A) with W337A, A344L
Particulars: for Emax: read-out: Emax (% WT); for EC50: pERK, three-parameter logistic fit. The method, boiled down:
as §1

[1] abbreviates: pERK maximal response, hCTR W361A, CV1-FlpIn cells, mean ± S.E.M.
Setting [2] is: hCTR W361A, CV1-FlpIn cells, mean ± S.E.M.

On to `CC[C@H](C)[C@H](NC(=O)[C@H](C)NC(=O)[C@@H](NC(=O)[C@H](CCC(N)=O)NC(=O)[C@@H]1CCCN1C(=O)[C@H](Cc1ccccc1)NC(=O)[C@@H](NC(=O)[C@H](Cc1c[nH]cn1)NC(=O)[C@H](Cc1ccccc1)NC(=O)[C@H](CCCCN)NC(=O)[C@H](CC(N)=O)NC(=O)[C@H](Cc1ccccc1)NC(=O)[C@H](CC(=O)O)NC(=O)[C@H](CCC(N)=O)NC(=O)[C@@H](NC(=O)[C@H](Cc1ccc(O)cc1)NC(=O)[C@@H](NC(=O)CNC(=O)[C@H](CC(C)C)NC(=O)[C@H](CCSC)NC(=O)[C@@H]1CSSC[C@H](N)C(=O)NCC(=O)N[C@@H](CC(N)=O)C(=O)N[C@@H](CC(C)C)C(=O)N[C@@H](CO)C(=O)N[C@@H]([C@@H](C)O)C(=O)N1)[C@@H](C)O)[C@@H](C)O)[C@@H](C)O)[C@@H](C)O)C(=O)NCC(=O)N[C@H](C(=O)NCC(=O)N[C@@H](C)C(=O)N1CCC[C@H]1C(N)=O)C(C)C` [hCT], for which the Emax – broadly, the maximal effect, on the per cent scale that the assay sets – was determined as 126 ± 7% at hCTR L368A; 186 ± 16% at hCTR K366A; 53 ± 5% at hCTR V357A; 52 ± 4% on hCTR M376A; 112 ± 6% at hCTR W361A.
For `CC(C)C[C@H](NC(=O)CNC(=O)[C@H](C)NC(=O)[C@H](CC(C)C)NC(=O)[C@H](CCCNC(=N)N)NC(=O)[C@H](Cc1cnc[nH]1)NC(=O)[C@@H](NC(=O)[C@@H](NC(=O)[C@@H]1CSSC[C@H](NC(=O)[C@H](C)N)C(=O)N[C@@H](CC(=O)O)C(=O)N[C@@H]([C@@H](C)O)C(=O)N[C@@H](C)C(=O)N[C@@H]([C@@H](C)O)C(=O)N1)C(C)C)[C@@H](C)O)C(=O)N[C@@H](CC(C)C)C(=O)N[C@@H](CO)C(=O)N[C@@H](CCCNC(=N)N)C(=O)N[C@@H](CO)C(=O)NCC(=O)NCC(=O)N[C@H](C(=O)N[C@H](C(=O)N[C@@H](CCCCN)C(=O)N[C@@H](CC(N)=O)C(=O)N[C@@H](CC(N)=O)C(=O)N[C@@H](Cc1ccccc1)C(=O)N[C@H](C(=O)N1CCC[C@H]1C(=O)N[C@H](C(=O)N[C@@H](CC(N)=O)C(=O)N[C@H](C(=O)NCC(=O)N[C@@H](CO)C(=O)N[C@@H](CCCCN)C(=O)N[C@@H](C)C(=O)N[C@@H](Cc1ccccc1)C(N)=O)C(C)C)[C@@H](C)O)C(C)C)C(C)C)C(C)C` [hαCGRP], the Emax on hCTR L368A was 84 ± 16%; on hCTR K366A, 146 ± 17%; at hCTR M376A, 36 ± 8%; at hCTR W361A (setting [1]) it was 49 ± 8%. Besides, the EC50 (as a rule, the concentration at which the effect is half-maximal) on hCTR L368A was 85.1 nM; on hCTR K366A, 40.7 nM; at hCTR M376A, 18.2 nM; at hCTR W361A (setting [2]) it was 117 nM.
As to `CSCC[C@H](NC(=O)CNC(=O)[C@H](CO)NC(=O)[C@H](Cc1ccccc1)NC(=O)[C@H](CCCNC(=N)N)NC(=O)[C@H](Cc1c[nH]cn1)NC(=O)[C@H](Cc1ccccc1)NC(=O)[C@H](CC(N)=O)NC(=O)[C@H](CC(N)=O)NC(=O)[C@H](CC(C)C)NC(=O)[C@H](CC(N)=O)NC(=O)[C@H](CCCNC(=N)N)NC(=O)[C@H](Cc1c[nH]c2ccccc12)NC(=O)[C@H](Cc1ccc(O)cc1)NC(=O)[C@H](C)NC(=O)[C@H](CO)NC(=O)[C@H](CC(C)C)NC(=O)[C@@H](NC(=O)[C@@H]1CSSC[C@H](N)C(=O)N[C@@H](CO)C(=O)N[C@@H](CC(N)=O)C(=O)N[C@@H](CC(C)C)C(=O)N[C@@H](CO)C(=O)N[C@@H]([C@@H](C)O)C(=O)N1)C(C)C)C(=O)NCC(=O)N[C@@H](Cc1ccccc1)C(=O)NCC(=O)N1CCC[C@H]1C(=O)N[C@@H](CCC(=O)O)C(=O)N[C@H](C(=O)N1CCC[C@H]1C(N)=O)[C@@H](C)O` [pCT] (H-CSNLSTCVLSAYWRNLNNFHRFSGMGFGPETP-NH2; disulfide 1-7), the Emax worked out at 159 ± 11% on hCTR L368A; 156 ± 9% on hCTR K366A; 83 ± 10% on hCTR V357A; 47 ± 4% at hCTR M376A; 76 ± 6% at hCTR W361A (setting [1]). The EC50 on hCTR L368A was 1.95 nM; on hCTR K366A, 1.91 nM; at hCTR V357A (pERK, three-parameter logistic fit), 3.72 nM; at hCTR M376A, 1.95 nM; at hCTR W361A (setting [2]), 6.31 nM.
In the case of `CC(C)C[C@H](NC(=O)[C@H](CC(N)=O)NC(=O)[C@H](CC(N)=O)NC(=O)[C@H](CO)NC(=O)[C@H](CO)NC(=O)[C@H](CCCNC(=N)N)NC(=O)[C@@H](NC(=O)[C@H](CC(C)C)NC(=O)[C@H](Cc1ccccc1)NC(=O)[C@H](CC(N)=O)NC(=O)[C@H](C)NC(=O)[C@H](CC(C)C)NC(=O)[C@H](CCCNC(=N)N)NC(=O)[C@H](CCC(N)=O)NC(=O)[C@@H](NC(=O)[C@H](C)NC(=O)[C@@H]1CSSC[C@H](NC(=O)[C@@H](N)CCCCN)C(=O)N[C@@H](CC(N)=O)C(=O)N[C@@H]([C@@H](C)O)C(=O)N[C@@H](C)C(=O)N[C@@H]([C@@H](C)O)C(=O)N1)[C@@H](C)O)C(C)C)C(=O)NCC(=O)N1CCC[C@H]1C(=O)N[C@H](C(=O)N[C@@H](CC(C)C)C(=O)N1CCC[C@H]1C(=O)N1CCC[C@H]1C(=O)N[C@H](C(=O)N[C@@H](CC(N)=O)C(=O)N[C@H](C(=O)NCC(=O)N[C@@H](CO)C(=O)N[C@@H](CC(N)=O)C(=O)N[C@H](C(=O)N[C@@H](Cc1ccc(O)cc1)C(N)=O)[C@@H](C)O)C(C)C)[C@@H](C)O)C(C)C` [rAmy], the Emax was found to be 82 ± 8% on hCTR L368A; 84 ± 11% at hCTR K366A; 40 ± 8% on hCTR V357A; 43 ± 7% on hCTR M376A; 42 ± 9% on hCTR W361A.
